From patent publication US11484543B2, “Compositions and methods for diagnosing and treating diseases and disorders associated with mutant KCNJ5” (The Rockefeller University, priority 2017, dated 2022)

Biological target: T1, KCNJ3/KCNJ5^WT (Homo sapiens, UniProt P48544)
T1 construct: GFP; expressed in transfected cells; host or cells: HEK293T (American Type Culture Collection), transient co-transfection
T1 sequence (P48544 1-419): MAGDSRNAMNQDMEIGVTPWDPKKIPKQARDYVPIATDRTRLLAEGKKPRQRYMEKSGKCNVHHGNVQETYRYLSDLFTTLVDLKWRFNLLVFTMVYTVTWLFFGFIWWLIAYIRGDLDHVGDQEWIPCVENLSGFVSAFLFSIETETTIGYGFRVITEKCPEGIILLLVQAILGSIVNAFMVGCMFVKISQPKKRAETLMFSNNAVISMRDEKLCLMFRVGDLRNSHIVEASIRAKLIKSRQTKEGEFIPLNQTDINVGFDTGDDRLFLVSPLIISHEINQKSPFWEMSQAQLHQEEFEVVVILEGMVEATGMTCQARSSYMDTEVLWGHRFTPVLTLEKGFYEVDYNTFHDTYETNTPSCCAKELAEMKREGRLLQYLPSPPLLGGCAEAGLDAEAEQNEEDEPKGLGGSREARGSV
T1 sequence (P48549 1-501 partner): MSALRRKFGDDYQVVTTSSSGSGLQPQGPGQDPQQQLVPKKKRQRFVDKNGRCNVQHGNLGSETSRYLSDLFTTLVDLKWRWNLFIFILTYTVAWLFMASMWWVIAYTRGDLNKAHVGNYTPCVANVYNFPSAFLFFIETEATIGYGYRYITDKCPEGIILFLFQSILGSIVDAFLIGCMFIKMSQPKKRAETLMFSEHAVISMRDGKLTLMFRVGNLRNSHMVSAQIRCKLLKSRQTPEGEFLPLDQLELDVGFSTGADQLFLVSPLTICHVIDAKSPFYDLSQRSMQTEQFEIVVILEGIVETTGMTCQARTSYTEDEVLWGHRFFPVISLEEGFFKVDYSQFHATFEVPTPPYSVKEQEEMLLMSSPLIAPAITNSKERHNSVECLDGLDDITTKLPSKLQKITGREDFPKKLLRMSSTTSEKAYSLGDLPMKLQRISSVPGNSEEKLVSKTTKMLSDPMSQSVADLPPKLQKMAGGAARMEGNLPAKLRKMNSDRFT
Experiment: Perforated whole-cell patch clamp, KCNJ3/KCNJ5^WT heterotetramers in HEK293T cells
Assay type: cell-based
Conditions: 20 μM, 10 minutes after addition
Procedure: HEK293T cells (American Type Culture Collection) were used for transient expression of GFP-tagged KCNJ5 or KCNJ3. The cells were grown in Dulbecco's modified Eagle medium (DMEM; Invitrogen) supplemented with 10% FBS (Invitrogen) in 5% CO2 and 95% air at 37° C. Cells were grown to 50-70% confluence for transfection, and the corresponding cDNAs (Choi et al., 2011, Science 331:768-772) were simultaneously applied to the cells using TurboFect transfection reagent according to the manufacturer's protocol (Fermentas). […]
Within 24 hr after transfection, the cells were treated with trypsin-containing medium (TrypLE Express) (Gibco) for 10 minutes to detach the cells. […] Fluorescence signal (an indication of positive transfection) was detected with an intensified video imaging system including a SIT 68 camera (Long Island Industries). […] After forming a high resistance seal (>2 GΩ), the membrane capacitance was monitored until the whole-cell patch configuration was formed. The cell membrane capacitance was measured and compensated. The K/cation currents were measured from −80 mV to 20 mV with 20 mV steps by an Axon 200A patch-clamp amplifier. The currents were low-pass filtered at 1 KHz and digitized by an Axon interface (Digidata 1200) and were analyzed using the pClamp software system 9 (Axon). […]

## CC[C@H]1OC(=O)[C@H](C)[C@@H](O[C@H]2C[C@@](C)(OC)[C@@H](O)[C@H](C)O2)[C@H](C)[C@@H](O[C@@H]2O[C@H](C)C[C@H](N(C)C)[C@H]2O)[C@](C)(O)C[C@@H](C)/C(=N\OCOCCOC)[C@H](C)[C@@H](O)[C@]1(C)O [Roxithromycin, roxithromycin]
  inhibition of potassium currents in KCNJ3/KCNJ5^WT channels: no inhibition
